Experimental data: patent publication US8957094B2, “Therapeutic agent or prophylactic agent for fibromyalgia” (Toray Industries, Inc., priority 2010, dated 2015)

Legend:
[1] = system: mouse partial sciatic nerve ligation model; assay: Mouse partial sciatic nerve ligation model (Seltzer model), von Frey test (neuropathic pain); assay type: in vivo; parameters: von Frey Total Score of 1 Hour after Oral Administration (Mean ± S.E.), Test Compound-Administered Group: scale not given here; conditions: for Score Improvement %: 1 hour after administration, relative to vehicle and sham surgery groups; for von Frey Total Score of 1 Hour after Oral Administration (Mean ± S.E.), Test Compound-Administered Group: n = 5-6, 7 days after ligation
Description: Mouse models of partial sciatic nerve ligation were prepared according to Seltzer's method (Malmberg et al., Pain, 1998, vol. 76, p. 215-222). Male ICR mice of 5 weeks old were anesthetized with Sodium pentobarbital (70 mg/kg, i.p.), and thereafter, the sciatic nerve at the femoral region of the right hindlimb of each mouse was exposed, and the sciatic nerve was triply ligated tightly with silk suture of 8-0 (NATSUME SEISAKUSHO) under microscope so that only half thickness of the nerve was trapped in the ligature, which mice were used as a ligation group. The mice whose sciatic nerves were exposed but not ligated were used as a sham surgery group.
Evaluation of neuropathic pain (hereinafter “von Frey test”) was carried out as follows. Mice were conditioned for at least 1 hour in an acryl cage for measurement (NATSUME SEISAKUSHO) placed on a wire net. Thereafter, using a filament (North Coast Medical, Inc. CA, USA) which exerted a pressure of 0.16 g, the mice were subjected to mechanical tactile stimulus by applying the filament to the plantar surface of both hindpaws 3 times, each for 3 seconds, with an interval of 3 seconds.
Seven days after the sciatic nerve ligation, test compounds were orally administered to the mice. Prior to the oral administration of the test compounds, the von Frey test was carried out to split the animals of the ligation group into vehicle groups and test compound-administered groups so that the sums of the total scores of the groups were equalized. The mice of the sham surgery groups, the vehicle groups and the test compound-administered groups were subjected to the von Frey test 1 hour, 2 hours and 3 hours after oral administration of a vehicle or a test compound, and the obtained scores were used as an indicator of analgesic effect. As a vehicle of test compound solution or suspension, DMSO:Tween80:distilled water (1:1:8), 27% HP-β-CD or 0.5% MC was used.
For evaluation of drug efficacy, data were statistically processed by unpaired multigroup t test (adjusted by Dunnett), taking the vehicle group of each measurement time as a control.

rat fibromyalgia model = assay: Effects on rat fibromyalgia model (acidic saline injection; allodynia by von Frey filaments); assay type: in vivo; conditions: compared with the vehicle group, Day 7, 1-3 h after dosing, p<0.05, FIG. 1
Description: In the experiments, 5 to 6 male SD rats of 6 to 7 weeks old were used for one experimental group. One hundred microliters of acidic physiological saline with pH of 4.0 was injected twice (taking the day when administration of acidic physiological saline started as Day 1, the administration was carried out once on Day 1 and once on Day 6) to gastrocnemius muscle of right hindlimb of each anesthetized rat to prepare a rat fibromyalgia model (Sluka et al., J. Pharmacol. Exp. Ther., 2002, vol. 302, p. 1146; Nagakura et al., Pain, 2009, vol. 146, p. 26; Sluka et al., Pain, 2009, vol. 146, p. 3), which was considered to reflect clinical symptoms of fibromyalgia based on their pharmacological characteristics and thus widely used in basic studies of fibromyalgia. In the same manner, physiological saline was administered to the control group.
For measurement of allodynia observed in a rat fibromyalgia model, a 50% withdrawal threshold (g) was determined using von Frey filaments in accordance with the method described in Chaplan et al., J. Neurosci. Methods, 1994, vol. 53, p. 55. On Day 7, allodynia was measured before oral administration of the test compound as Pre, and 1-, 2- and 3-hour after oral administration of the test compound. Rats which developed allodynia by receiving intramuscular injection of acidic physiological saline were used as a rat fibromyalgia model to evaluate the analgesic effect of the test compound. The term “rats which developed allodynia” herein means the rats showing a 50% withdrawal threshold (g) (the mean value of right and left hind paws) of 6 g or less. Pregabalin was used as a positive control.
Compound 3, which is included in Compound (I), was suspended in 0.5% methylcellulose solution (hereinafter “0.5% MC”) to a concentration of 5 mg/mL or 10 mg/mL, and orally administered at an administration volume of 1 mL per 1 kg body weight. Pregabalin was suspended in 0.5% MC to a concentration of 10 mg/mL, and orally administered at an administration volume of 1 mL per 1 kg body weight. The vehicle group received oral administration of 0.5% MC. […]

fibromyalgia = conditions: reported, Abeles et al., Am J. Med., 2008; cited from earlier work

For `COc1ccc(-n2nc(C3(O)CCC(O)CC3)cc2-c2ccc(C)cc2)cc1` (single isomer, unassigned) [Compound 2, 1-(1-(4-methoxyphenyl)-5-(p-tolyl)-1H-pyrazol-3-yl)cyclohexan-trans-1,4-diol], the “Score Improvement %” value ([1]; dose 0.3 mg/kg oral, 0.3 mg/kg) was 104% and the “von Frey Total Score of 1 Hour after Oral Administration (Mean ± S.E.), Test Compound-Administered Group” value (“von Frey Total Score of 1 Hour” below) ([1]; dose 0.3 mg/kg oral, 0.3 mg/kg) was 0.8 ± 0.5.
With `COc1ccc(-n2nc(C3(O)CCC(O)CC3)cc2-c2ccc(C)cc2)cc1` (single isomer, unassigned) [Compound 3, 1-(1-(4-methoxyphenyl)-5-(p-tolyl)-1H-pyrazol-3-yl)cyclohexan-cis-1,4-diol] the “allodynia observed in the rat fibromyalgia model (50% withdrawal threshold)” value (“allodynia observed … (50% withdrawal threshold)” below) (rat fibromyalgia model; oral administration 5 mg/kg) was “significantly improved allodynia”, the “allodynia observed … (50% withdrawal threshold)” value (rat fibromyalgia model; oral administration 10 mg/kg) was “significantly improved allodynia” and the “Score Improvement %” value ([1]; dose 0.3 mg/kg oral, 0.3 mg/kg) was 83%. For the same compound, the “von Frey Total Score of 1 Hour” value ([1]; dose 0.3 mg/kg oral, 0.3 mg/kg) was 1.2 ± 0.8.
With `COc1ccc(-c2cc(C3(O)CCC(O)CC3)nn2-c2ccc(OC)cc2)cc1` (stereo not drawn) [Compound 8, 1-(1,5-bis(4-methoxyphenyl)-1H-pyrazol-3-yl)cyclohexan-cis-1,4-diol] the “von Frey Total Score of 1 Hour” value ([1]; dose 10 mg/kg oral) was 2.2 ± 0.5.
For `COc1ccc(-n2nc(C3(O)CCC(O)CC3)c(Cl)c2-c2ccc(C)cc2)cc1` (stereo not drawn) [Compound 9, 1-(4-chloro-1-(4-methoxyphenyl)-5-(p-tolyl)-1H-pyrazol-3-yl)cyclohexan-cis-1,4-diol], the “von Frey Total Score of 1 Hour” value ([1]; dose 10 mg/kg oral) was 1.7 ± 0.6.
With `COc1ccc(-n2nc(C3(O)CCC(O)(C(F)(F)F)CC3)cc2-c2ccc(C)cc2)cc1` (stereo not drawn) [Compound 10, 1-(1-(4-methoxyphenyl)-5-(p-tolyl)-1H-pyrazol-3-yl)-4-(trifluoromethyl)cyclohexan-cis-1,4-diol] the “von Frey Total Score of 1 Hour” value ([1]; dose 1 mg/kg oral) was 1.5 ± 0.5.
With `COc1ccc(-n2nc(C3(O)CCC(C(=O)O)CC3)cc2-c2ccc(C)cc2)cc1` (stereo not drawn) [Compound 16, 4-hydroxy-4-(1-(4-methoxyphenyl)-5-(p-tolyl)-1H-pyrazol-3-yl)-cis-cyclohexanecarboxylic acid] the “von Frey Total Score of 1 Hour” value ([1]; dose 1 mg/kg oral) was 2.3 ± 0.5.
For `COc1ccc(-c2nc(C3(O)CCC(O)CC3)oc2-c2ccc(OC)cc2)cc1` (stereo not drawn) [Compound 43, 4-(4,5-bis(4-methoxyphenyl)oxazol-2-yl)cyclohexan-cis-1,4-diol], the “von Frey Total Score of 1 Hour” value ([1]; dose 10 mg/kg oral) was 0.8 ± 0.7.
In the case of `COc1ccc(-n2nc(C3(O)CCC(O)CC3)cc2-c2ccc(C)cc2)cc1F` (stereo not shown) [Compound 54], the “von Frey Total Score of 1 Hour” value ([1]; dose 10 mg/kg oral) is reported as 1.2 ± 0.6.
With `COc1ccc(-n2nc(C3(O)CCC(O)CC3)cc2-c2ccc(C)c(F)c2)cc1` (stereo not shown) [Compound 55] the “von Frey Total Score of 1 Hour” value ([1]; dose 3 mg/kg oral) was 0.7 ± 0.5.
In the case of `CC(C)Cc1ccc(C(C)C(=O)O)cc1` (stereo not shown) [ibuprofen], the “analgesic effect in treating fibromyalgia” value (fibromyalgia) is listed as “any statistically significant analgesic effect is not observed”.
For `COc1ccc2cc([C@H](C)C(=O)O)ccc2c1` [naproxen], the “analgesic effect in treating fibromyalgia” value (fibromyalgia) is listed as “any statistically significant analgesic effect is not observed”.
For `CC(C)C[C@H](CN)CC(=O)O` [pregabalin, reference compound], the “allodynia observed … (50% withdrawal threshold)” value (rat fibromyalgia model; oral administration 10 mg/kg) was “significantly improved allodynia”.
